Values after ≈ are worked out from the molar mass of the structure shown. Active and inactive are the calls of the source. The calls are words filed in the database; no cut-off is given here.
Tests used:
[1] = biological target: T1, Enoyl-[acyl-carrier-protein] reductase [NADH] (Mycobacterium tuberculosis) (UniProt P9WGR1); experiment: Inhibition of Mycobacterium tuberculosis H37Rv ATCC 27294 InhA assessed as bacterial growth inhibition after 5 days by microplate alamar blue assay
T1 sequence (whole entry): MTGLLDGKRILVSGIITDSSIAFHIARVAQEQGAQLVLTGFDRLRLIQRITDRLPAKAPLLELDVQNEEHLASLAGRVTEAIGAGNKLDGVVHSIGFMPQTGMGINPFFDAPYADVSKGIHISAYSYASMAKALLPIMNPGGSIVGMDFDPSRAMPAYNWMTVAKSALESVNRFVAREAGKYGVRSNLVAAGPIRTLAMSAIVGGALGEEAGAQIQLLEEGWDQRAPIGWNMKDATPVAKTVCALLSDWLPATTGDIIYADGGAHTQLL

[2] = test system: Escherichia coli; experiment: Antibacterial activity against Escherichia coli by dilution assay; assay type: functional
[3] = test system: Pseudomonas aeruginosa; experiment: Antibacterial activity against Pseudomonas aeruginosa by dilution assay; assay type: functional
[4] = test system: Staphylococcus aureus; experiment: Antibacterial activity against Staphylococcus aureus by dilution assay; assay type: functional
[5] = Selectivity index, ratio of IC50 for cytotoxicity against African green monkey Vero cells to MIC for antitubercular activity against Mycobacterium tuberculosis H37Rv ATCC 27294; assay type: toxicity, cell-based; conditions: read-out: Selectivity Index
[6] = test system: Vero; experiment: Cytotoxicity against African green monkey Vero cells assessed as reduction in cell viability incubated for 48 hrs by MTT assay; assay type: cell-based; conditions: Chlorocebus sabaeus
[7] = Cytotoxicity against African green monkey Vero cells assessed as growth inhibition at 62.5 ug/ml after 48 hrs by MTT assay relative to control; assay type: cell-based; conditions: chlorocebus sabaeus, read-out: GI

| Compound | MIC [1] [µM] | MIC [2] | MIC [3] | MIC [4] [µg/mL] | selectivity ratio [5] | IC50 [6] [µg/mL] | inhibition at 48 h, 62.5 ug/ml [7] [%] |
| --- | --- | --- | --- | --- | --- | --- | --- |
| O=[N+]([O-])c1ccc(Cn2cc(CSc3nnc(-c4cnccn4)o3)nn2)cc1 | 15.8 (≈ 6.25 µg/mL) | inactive | 25 µg/mL (≈ 63.1 µM) | 12.5 (≈ 31.5 µM) | – | – | – |
| N#Cc1ccc(Cn2cc(CSc3nnc(-c4cccnc4)o3)nn2)cc1 | 66.6 (≈ 25 µg/mL) | 50 µg/mL (≈ 133 µM) | 50 µg/mL (≈ 133 µM) | 50 (≈ 133 µM) | – | – | – |
| N#Cc1ccc(Cn2cc(CNC(=O)c3ccccc3)nn2)cc1 | 39.4 (≈ 12.5 µg/mL) | 25 µg/mL (≈ 78.8 µM) | 25 µg/mL (≈ 78.8 µM) | 25 (≈ 78.8 µM) | – | – | – |
| O=C(NCc1cn(Cc2ccccc2F)nn1)c1cnccn1 | 9.99 (≈ 3.12 µg/mL) | 12.5 µg/mL (≈ 40 µM) | 12.5 µg/mL (≈ 40 µM) | 6.25 (≈ 20 µM) | – | – | – |
| O=C(OCc1cn(Cc2ccc(F)cc2)nn1)c1cnccn1 | 9.95 (≈ 3.12 µg/mL) | 12.5 µg/mL (≈ 39.9 µM) | 25 µg/mL (≈ 79.8 µM) | 12.5 (≈ 39.9 µM) | – | – | – |
| O=C(OCc1cn(Cc2ccc(F)cc2)nn1)c1ccccc1 | 80.3 (≈ 25 µg/mL) | 50 µg/mL (≈ 161 µM) | 25 µg/mL (≈ 80.3 µM) | 25 (≈ 80.3 µM) | – | – | – |
| O=C(NCc1cn(Cc2ccc(C(F)(F)F)cc2)nn1)c1cnccn1 | 4.31 (≈ 1.56 µg/mL) | 12.5 µg/mL (≈ 34.5 µM) | 25 µg/mL (≈ 69 µM) | 12.5 (≈ 34.5 µM) | 219 | 342 (≈ 944 µM) | 8.4 |
| NC(=O)c1cnccn1 | 25.3 (≈ 3.12 µg/mL) | – | – | – | – | – | – |
| Fc1ccccc1Cn1cc(CSc2nnc(-c3cccnc3)o2)nn1 | > 100 | 50 µg/mL (≈ 136 µM) | 25 µg/mL (≈ 67.9 µM) | 50 (≈ 136 µM) | – | – | – |
| O=C(OCc1cn(Cc2ccc(C(F)(F)F)cc2)nn1)c1cnccn1 | 8.59 (≈ 3.12 µg/mL) | 25 µg/mL (≈ 68.8 µM) | 25 µg/mL (≈ 68.8 µM) | 25 (≈ 68.8 µM) | – | – | – |
| O=C(NCc1cn(Cc2ccc(F)cc2)nn1)c1cccnc1 | 80.3 (≈ 25 µg/mL) | 12.5 µg/mL (≈ 40.2 µM) | 25 µg/mL (≈ 80.3 µM) | 12.5 (≈ 40.2 µM) | – | – | – |
| O=C(OCc1cn(Cc2ccccc2F)nn1)c1cccnc1 | 80 (≈ 25 µg/mL) | 25 µg/mL (≈ 80.1 µM) | 50 µg/mL (≈ 160 µM) | 50 (≈ 160 µM) | – | – | – |
| O=C(O)c1cn(C2CC2)c2cc(N3CCNCC3)c(F)cc2c1=O [CIPROFLOXACIN] | 9.41 (≈ 3.12 µg/mL) | – | 4 µg/mL (≈ 12.1 µM) | 2 (≈ 6.04 µM) | – | – | – |
| Cc1ccc(Cn2cc(CSc3nnc(-c4cccnc4)o3)nn2)cc1 | 34.3 (≈ 12.5 µg/mL) | 252 µg/mL (≈ 691 µM) | 225 µg/mL (≈ 617 µM) | 12.5 (≈ 34.3 µM) | – | – | – |
| N#Cc1ccc(Cn2cc(CSc3nnc(-c4cnccn4)o3)nn2)cc1 | 16.6 (≈ 6.25 µg/mL) | 50 µg/mL (≈ 133 µM) | 50 µg/mL (≈ 133 µM) | 25 (≈ 66.4 µM) | – | – | – |
| Fc1ccccc1Cn1cc(CSc2nnc(-c3cnccn3)o2)nn1 | > 100 | inactive | inactive | 50 (≈ 135 µM) | – | – | – |
| CN[C@@H]1[C@H](O[C@H]2[C@H](O[C@H]3[C@H](O)[C@@H](O)[C@H](N=C(N)N)[C@@H](O)[C@@H]3N=C(N)N)O[C@@H](C)[C@]2(O)C=O)O[C@@H](CO)[C@H](O)[C@H]1O | 11.7 (≈ 6.83 µg/mL) | – | – | – | – | – | – |
| O=C(NCc1cn(Cc2ccc(F)cc2)nn1)c1ccccc1 | > 100 | inactive | inactive | 50 (≈ 161 µM) | – | – | – |
| O=C(OCc1cn(Cc2ccccc2F)nn1)c1ccccc1 | 80.3 (≈ 25 µg/mL) | 25 µg/mL (≈ 80.3 µM) | 50 µg/mL (≈ 161 µM) | 25 (≈ 80.3 µM) | – | – | – |
| O=C(NCc1cn(Cc2ccc(F)cc2)nn1)c1cnccn1 | 4.99 (≈ 1.56 µg/mL) | 12.5 µg/mL (≈ 40 µM) | 12.5 µg/mL (≈ 40 µM) | 6.25 (≈ 20 µM) | 318 | 496 (≈ 1590 µM) | 5.9 |
| O=C(NCc1cn(Cc2ccc(C(F)(F)F)cc2)nn1)c1cccnc1 | 4.31 (≈ 1.56 µg/mL) | 6.25 µg/mL (≈ 17.3 µM) | 12.5 µg/mL (≈ 34.6 µM) | 12.5 (≈ 34.6 µM) | 216 | 336 (≈ 931 µM) | 7.42 |
| O=C(OCc1cn(Cc2ccc(C(F)(F)F)cc2)nn1)c1cccnc1 | 34.5 (≈ 12.5 µg/mL) | 25 µg/mL (≈ 69 µM) | 50 µg/mL (≈ 138 µM) | 25 (≈ 69 µM) | – | – | – |
| Fc1ccc(Cn2cc(CSc3nnc(-c4cnccn4)o3)nn2)cc1 | 33.8 (≈ 12.5 µg/mL) | 25 µg/mL (≈ 67.7 µM) | 50 µg/mL (≈ 135 µM) | 25 (≈ 67.7 µM) | – | – | – |

| Compound | MIC [1] [µM] | MIC [2] | MIC [3] | MIC [4] [µg/mL] | selectivity ratio [5] | IC50 [6] [µg/mL] | inhibition at 48 h, 62.5 ug/ml [7] [%] |
| --- | --- | --- | --- | --- | --- | --- | --- |
| N#Cc1ccc(Cn2cc(CNC(=O)c3cccnc3)nn2)cc1 | 4.9 (≈ 1.56 µg/mL) | 6.25 µg/mL (≈ 19.6 µM) | 6.25 µg/mL (≈ 19.6 µM) | 6.25 (≈ 19.6 µM) | 256 | 399 (≈ 1250 µM) | 17.7 |
| O=C(NCc1cn(Cc2ccccc2F)nn1)c1ccccc1 | > 100 | inactive | 50 µg/mL (≈ 161 µM) | 50 (≈ 161 µM) | – | – | – |
| FC(F)(F)c1ccc(Cn2cc(CSc3nnc(-c4cccnc4)o3)nn2)cc1 | > 100 | 50 µg/mL (≈ 120 µM) | 50 µg/mL (≈ 120 µM) | 25 (≈ 59.8 µM) | – | – | – |
| O=C(NCc1cn(Cc2ccc([N+](=O)[O-])cc2)nn1)c1cccnc1 | 4.61 (≈ 1.56 µg/mL) | 12.5 µg/mL (≈ 36.9 µM) | 6.25 µg/mL (≈ 18.5 µM) | 6.25 (≈ 18.5 µM) | 298 | 465 (≈ 1380 µM) | 7.08 |
| N#Cc1ccc(Cn2cc(CNC(=O)c3cnccn3)nn2)cc1 | 4.88 (≈ 1.56 µg/mL) | 6.25 µg/mL (≈ 19.6 µM) | 6.25 µg/mL (≈ 19.6 µM) | 6.25 (≈ 19.6 µM) | 342 | 533 (≈ 1670 µM) | 12.3 |
| Fc1ccc(Cn2cc(CSc3nnc(-c4cccnc4)o3)nn2)cc1 | > 100 | inactive | inactive | 50 (≈ 136 µM) | – | – | – |
| O=C(OCc1cn(Cc2ccc(F)cc2)nn1)c1cccnc1 | > 100 | inactive | 50 µg/mL (≈ 160 µM) | 50 (≈ 160 µM) | – | – | – |
| O=[N+]([O-])c1ccc(Cn2cc(CSc3nnc(-c4cccnc4)o3)nn2)cc1 | 63.2 (≈ 25 µg/mL) | 50 µg/mL (≈ 126 µM) | 25 µg/mL (≈ 63.2 µM) | 25 (≈ 63.2 µM) | – | – | – |
| O=C(OCc1cn(Cc2ccc([N+](=O)[O-])cc2)nn1)c1cccnc1 | 36.8 (≈ 12.5 µg/mL) | 25 µg/mL (≈ 73.7 µM) | 25 µg/mL (≈ 73.7 µM) | 25 (≈ 73.7 µM) | – | – | – |
| N#Cc1ccc(Cn2cc(COC(=O)c3cnccn3)nn2)cc1 | 9.74 (≈ 3.12 µg/mL) | 50 µg/mL (≈ 156 µM) | 25 µg/mL (≈ 78 µM) | 12.5 (≈ 39 µM) | – | – | – |
| Cc1ccc(Cn2cc(CSc3nnc(-c4cnccn4)o3)nn2)cc1 | 8.53 (≈ 3.12 µg/mL) | 12.5 µg/mL (≈ 34.2 µM) | 25 µg/mL (≈ 68.4 µM) | 12.5 (≈ 34.2 µM) | – | – | – |
| O=C(OCc1cn(Cc2ccc([N+](=O)[O-])cc2)nn1)c1cnccn1 | 18.4 (≈ 6.25 µg/mL) | 25 µg/mL (≈ 73.5 µM) | 50 µg/mL (≈ 147 µM) | 25 (≈ 73.5 µM) | – | – | – |
| O=C(NCc1cn(Cc2ccccc2F)nn1)c1cccnc1 | 10 (≈ 3.12 µg/mL) | 25 µg/mL (≈ 80.3 µM) | 25 µg/mL (≈ 80.3 µM) | 6.25 (≈ 20.1 µM) | – | – | – |
| O=C(OCc1cn(Cc2ccc(C(F)(F)F)cc2)nn1)c1ccccc1 | > 100 | inactive | inactive | 50 (≈ 138 µM) | – | – | – |
| FC(F)(F)c1ccc(Cn2cc(CSc3nnc(-c4cnccn4)o3)nn2)cc1 | 59.6 (≈ 25 µg/mL) | 25 µg/mL (≈ 59.6 µM) | 25 µg/mL (≈ 59.6 µM) | 25 (≈ 59.6 µM) | – | – | – |
| N#Cc1ccc(Cn2cc(COC(=O)c3ccccc3)nn2)cc1 | 39.3 (≈ 12.5 µg/mL) | 25 µg/mL (≈ 78.5 µM) | 50 µg/mL (≈ 157 µM) | 25 (≈ 78.5 µM) | – | – | – |
| O=C(OCc1cn(Cc2ccccc2F)nn1)c1cnccn1 | 19.9 (≈ 6.23 µg/mL) | 25 µg/mL (≈ 79.8 µM) | 50 µg/mL (≈ 160 µM) | 25 (≈ 79.8 µM) | – | – | – |
| O=C(OCc1cn(Cc2ccc([N+](=O)[O-])cc2)nn1)c1ccccc1 | > 100 | inactive | inactive | 50 (≈ 148 µM) | – | – | – |
| O=C(NCc1cn(Cc2ccc([N+](=O)[O-])cc2)nn1)c1ccccc1 | > 100 | 50 µg/mL (≈ 148 µM) | 50 µg/mL (≈ 148 µM) | 50 (≈ 148 µM) | – | – | – |
| O=C(NCc1cn(Cc2ccc(C(F)(F)F)cc2)nn1)c1ccccc1 | > 100 | inactive | 25 µg/mL (≈ 69.4 µM) | 50 (≈ 139 µM) | – | – | – |
| N#Cc1ccc(Cn2cc(COC(=O)c3cccnc3)nn2)cc1 | 78.3 (≈ 25 µg/mL) | 50 µg/mL (≈ 157 µM) | 50 µg/mL (≈ 157 µM) | 25 (≈ 78.3 µM) | – | – | – |
| O=C(NCc1cn(Cc2ccc([N+](=O)[O-])cc2)nn1)c1cnccn1 | 4.59 (≈ 1.56 µg/mL) | 6.25 µg/mL (≈ 18.4 µM) | 6.25 µg/mL (≈ 18.4 µM) | 3.12 (≈ 9.19 µM) | 258 | 403 (≈ 1190 µM) | 20.5 |

Reference: ChEMBL document CHEMBL4602648, “The bioisosteric modification of pyrazinamide derivatives led to potent antitubercular agents: Synthesis via click approach and molecular docking of pyrazine-1,2,3-triazoles” (Bioorg Med Chem Lett, 2020)
